{"source": "ChEMBL document CHEMBL1909046", "about": "“DrugMatrix in vitro pharmacology data”", "key": {"[1]": {"target": "Mitogen-activated protein kinase 14 (Homo sapiens, UniProt Q16539)", "sequence (Q16539 whole entry)": "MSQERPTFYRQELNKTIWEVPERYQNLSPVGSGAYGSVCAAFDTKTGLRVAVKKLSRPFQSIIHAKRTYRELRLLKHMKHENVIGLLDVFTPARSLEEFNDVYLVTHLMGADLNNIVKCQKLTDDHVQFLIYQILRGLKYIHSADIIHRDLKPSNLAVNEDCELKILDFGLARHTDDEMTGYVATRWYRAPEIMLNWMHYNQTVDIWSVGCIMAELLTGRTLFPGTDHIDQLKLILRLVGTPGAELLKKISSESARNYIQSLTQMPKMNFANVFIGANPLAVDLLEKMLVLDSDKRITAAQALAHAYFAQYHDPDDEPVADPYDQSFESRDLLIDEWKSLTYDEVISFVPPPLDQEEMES", "set-up": "species or system Escherichia coli"}, "[2]": {"target": "T1, Muscarinic acetylcholine receptor M2 (Homo sapiens, UniProt P08172)", "T1 sequence (P08172 whole entry)": "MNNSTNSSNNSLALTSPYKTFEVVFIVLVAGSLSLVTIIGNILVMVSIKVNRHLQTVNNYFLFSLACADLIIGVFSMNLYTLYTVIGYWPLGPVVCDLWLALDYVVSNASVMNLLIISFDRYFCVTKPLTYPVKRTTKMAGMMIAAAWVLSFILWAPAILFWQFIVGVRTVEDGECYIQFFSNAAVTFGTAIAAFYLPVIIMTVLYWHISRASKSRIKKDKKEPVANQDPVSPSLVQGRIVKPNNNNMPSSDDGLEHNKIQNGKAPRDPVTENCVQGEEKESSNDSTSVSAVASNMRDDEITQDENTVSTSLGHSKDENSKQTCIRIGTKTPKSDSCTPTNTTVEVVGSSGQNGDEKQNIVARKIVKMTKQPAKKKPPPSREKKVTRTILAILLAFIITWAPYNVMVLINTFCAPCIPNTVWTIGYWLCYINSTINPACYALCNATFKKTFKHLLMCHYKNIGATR", "format": "cell membranes, CHO-K1, Membrane", "details": "cho-k1"}, "[3]": {"target": "5-hydroxytryptamine receptor 1B (Rattus norvegicus, UniProt P28564)", "sequence (P28564 whole entry)": "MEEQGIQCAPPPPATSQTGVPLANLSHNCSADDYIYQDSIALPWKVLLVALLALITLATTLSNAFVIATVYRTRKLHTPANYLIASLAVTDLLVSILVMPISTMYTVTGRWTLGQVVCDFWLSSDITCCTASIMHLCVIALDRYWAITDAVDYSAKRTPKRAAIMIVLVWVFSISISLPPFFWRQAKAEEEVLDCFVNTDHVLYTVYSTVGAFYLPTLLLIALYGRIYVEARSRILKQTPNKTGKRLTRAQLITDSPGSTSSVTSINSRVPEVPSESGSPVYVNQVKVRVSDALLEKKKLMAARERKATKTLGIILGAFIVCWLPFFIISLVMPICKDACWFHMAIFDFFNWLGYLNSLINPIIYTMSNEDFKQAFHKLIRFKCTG", "format": "cell membranes, Wistar, Cerebral cortex, Membrane"}, "Thromboxane-A synthase": {"target": "T2, Thromboxane-A synthase (Homo sapiens, UniProt P24557)", "T2 sequence (P24557 whole entry)": "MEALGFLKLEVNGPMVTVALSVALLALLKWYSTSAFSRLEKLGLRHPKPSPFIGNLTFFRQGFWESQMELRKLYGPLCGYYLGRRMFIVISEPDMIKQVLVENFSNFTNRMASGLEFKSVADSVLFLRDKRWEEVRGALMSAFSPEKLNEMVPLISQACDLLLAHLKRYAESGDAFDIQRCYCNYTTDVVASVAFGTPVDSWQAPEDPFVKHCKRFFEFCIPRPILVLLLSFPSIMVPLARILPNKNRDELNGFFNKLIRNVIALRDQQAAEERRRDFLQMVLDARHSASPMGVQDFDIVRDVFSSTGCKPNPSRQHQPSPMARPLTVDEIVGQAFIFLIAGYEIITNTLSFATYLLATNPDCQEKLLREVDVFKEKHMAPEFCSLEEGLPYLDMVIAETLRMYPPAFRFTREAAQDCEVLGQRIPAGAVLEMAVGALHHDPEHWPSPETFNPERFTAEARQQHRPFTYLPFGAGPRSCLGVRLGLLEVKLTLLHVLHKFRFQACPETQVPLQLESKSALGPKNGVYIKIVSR", "assay": "biochemical", "format": "tissue-based, Platelet", "details": "for pIC50: read-out: IC50"}, "[4]": {"assay": "DRUGMATRIX: Imidazoline I2, Central radioligand binding (ligand: [3H] Idazoxan)", "format": "cell membranes, Rattus norvegicus, Wistar, Cerebral cortex, Membrane", "details": "Not Active = under 50% inhibition at 10 µM"}, "[5]": {"assay": "DRUGMATRIX: Phorbol Ester radioligand binding (ligand: [3H] PDBu)", "format": "cell membranes, Mus musculus, ICR, Brain, Membrane", "details": "Not Active = under 50% inhibition at 10 µM"}}, "note": "pIC50: −log10 of the molar value.", "data": [{"compound": "Cc1cccc(N(C)C(=S)Oc2ccc3ccccc3c2)c1", "note": "[TOLNAFTATE]", "values": [{"measurement": "IC50", "setting": "[1]", "value": "Not Active"}, {"measurement": "IC50", "setting": "[2]", "value": "Not Active"}, {"measurement": "IC50", "setting": "[3]", "value": "Not Active"}, {"measurement": "IC50", "setting": "Thromboxane-A synthase; platelet", "value": "Not Active"}, {"measurement": "IC50", "setting": "[4]", "value": "Not Active"}, {"measurement": "Ki", "setting": "[4]", "value": "Not Active"}, {"measurement": "IC50", "setting": "[5]", "value": "Not Active"}, {"measurement": "Ki", "setting": "[5]", "value": "Not Active"}]}, {"compound": "NC[C@H]1CC[C@H](C(=O)O)CC1", "note": "[TRANEXAMIC ACID]", "values": [{"measurement": "IC50", "setting": "[1]", "value": "Not Active"}, {"measurement": "IC50", "setting": "[2]", "value": "Not Active"}, {"measurement": "IC50", "setting": "[3]", "value": "Not Active"}, {"measurement": "IC50", "setting": "Thromboxane-A synthase; platelet", "value": "Not Active"}, {"measurement": "IC50", "setting": "[4]", "value": "Not Active"}, {"measurement": "Ki", "setting": "[4]", "value": "Not Active"}, {"measurement": "IC50", "setting": "[5]", "value": "Not Active"}, {"measurement": "Ki", "setting": "[5]", "value": "Not Active"}]}, {"compound": "CC1(C)O[C@@H]2C[C@H]3[C@@H]4CCC5=CC(=O)C=C[C@]5(C)[C@@]4(F)[C@@H](O)C[C@]3(C)[C@]2(C(=O)CO)O1", "note": "[TRIAMCINOLONE ACETONIDE]", "values": [{"measurement": "IC50", "setting": "[1]", "value": "Not Active"}, {"measurement": "IC50", "setting": "[2]", "value": "Not Active"}, {"measurement": "IC50", "setting": "[3]", "value": "Not Active"}, {"measurement": "IC50", "setting": "Thromboxane-A synthase; platelet", "value": "Not Active"}, {"measurement": "IC50", "setting": "[4]", "value": "Not Active"}, {"measurement": "Ki", "setting": "[4]", "value": "Not Active"}, {"measurement": "IC50", "setting": "[5]", "value": "Not Active"}, {"measurement": "Ki", "setting": "[5]", "value": "Not Active"}]}, {"compound": "NS(=O)(=O)c1cc2c(cc1Cl)NC(C(Cl)Cl)NS2(=O)=O", "note": "(centres undefined) [TRICHLORMETHIAZIDE]", "values": [{"measurement": "IC50", "setting": "[1]", "value": "Not Active"}, {"measurement": "IC50", "setting": "[2]", "value": "Not Active"}, {"measurement": "IC50", "setting": "[3]", "value": "Not Active"}, {"measurement": "IC50", "setting": "Thromboxane-A synthase; platelet", "value": "Not Active"}, {"measurement": "IC50", "setting": "[4]", "value": "Not Active"}, {"measurement": "Ki", "setting": "[4]", "value": "Not Active"}, {"measurement": "IC50", "setting": "[5]", "value": "Not Active"}, {"measurement": "Ki", "setting": "[5]", "value": "Not Active"}]}, {"compound": "Cc1c(C)c2c(c(C)c1O)CCC(C)(COc1ccc(CC3SC(=O)NC3=O)cc1)O2", "note": "(centres undefined) [TROGLITAZONE]", "values": [{"measurement": "IC50", "setting": "[1]", "value": "Not Active"}, {"measurement": "IC50", "setting": "[2]", "value": "Not Active"}, {"measurement": "IC50", "setting": "[3]", "value": "Not Active"}, {"measurement": "pIC50", "setting": "Thromboxane-A synthase", "value": 5.53}, {"measurement": "IC50", "setting": "[4]", "value": "Not Active"}, {"measurement": "Ki", "setting": "[4]", "value": "Not Active"}, {"measurement": "IC50", "setting": "[5]", "value": "Not Active"}, {"measurement": "Ki", "setting": "[5]", "value": "Not Active"}]}, {"compound": "N[C@@H]1[C@H]2CN(c3nc4c(cc3F)c(=O)c(C(=O)O)cn4-c3ccc(F)cc3F)C[C@@H]12", "note": "[TROVAFLOXACIN]", "values": [{"measurement": "IC50", "setting": "[1]", "value": "Not Active"}, {"measurement": "IC50", "setting": "[2]", "value": "Not Active"}, {"measurement": "IC50", "setting": "[3]", "value": "Not Active"}, {"measurement": "pIC50", "setting": "Thromboxane-A synthase", "value": 5.40}, {"measurement": "IC50", "setting": "[4]", "value": "Not Active"}, {"measurement": "Ki", "setting": "[4]", "value": "Not Active"}, {"measurement": "IC50", "setting": "[5]", "value": "Not Active"}, {"measurement": "Ki", "setting": "[5]", "value": "Not Active"}]}, {"compound": "N#CC(C#N)=Cc1ccc(O)c(O)c1", "note": "[TYRPHOSTIN 23]", "values": [{"measurement": "IC50", "setting": "[1]", "value": "Not Active"}, {"measurement": "IC50", "setting": "[2]", "value": "Not Active"}, {"measurement": "IC50", "setting": "[3]", "value": "Not Active"}, {"measurement": "IC50", "setting": "Thromboxane-A synthase; platelet", "value": "Not Active"}, {"measurement": "IC50", "setting": "[4]", "value": "Not Active"}, {"measurement": "Ki", "setting": "[4]", "value": "Not Active"}, {"measurement": "IC50", "setting": "[5]", "value": "Not Active"}, {"measurement": "Ki", "setting": "[5]", "value": "Not Active"}]}, {"compound": "CC[C@]1(O)C[C@H]2CN(CCc3c([nH]c4ccccc34)[C@@](C(=O)OC)(c3cc4c(cc3OC)N(C=O)[C@H]3[C@@](O)(C(=O)OC)[C@H](OC(C)=O)[C@]5(CC)C=CCN6CC[C@]43[C@@H]65)C2)C1", "note": "[VINCRISTINE]", "values": [{"measurement": "IC50", "setting": "[1]", "value": "Not Active"}, {"measurement": "IC50", "setting": "[2]", "value": "Not Active"}, {"measurement": "IC50", "setting": "[3]", "value": "Not Active"}, {"measurement": "IC50", "setting": "Thromboxane-A synthase; platelet", "value": "Not Active"}, {"measurement": "IC50", "setting": "[4]", "value": "Not Active"}, {"measurement": "Ki", "setting": "[4]", "value": "Not Active"}, {"measurement": "IC50", "setting": "[5]", "value": "Not Active"}, {"measurement": "Ki", "setting": "[5]", "value": "Not Active"}]}, {"compound": "CCCOc1ccccc1-c1nc2nn[nH]c2c(=O)[nH]1", "note": "[ZAPRINAST]", "values": [{"measurement": "IC50", "setting": "[1]", "value": "Not Active"}, {"measurement": "IC50", "setting": "[2]", "value": "Not Active"}, {"measurement": "IC50", "setting": "[3]", "value": "Not Active"}, {"measurement": "IC50", "setting": "Thromboxane-A synthase; platelet", "value": "Not Active"}, {"measurement": "IC50", "setting": "[4]", "value": "Not Active"}, {"measurement": "Ki", "setting": "[4]", "value": "Not Active"}, {"measurement": "IC50", "setting": "[5]", "value": "Not Active"}, {"measurement": "Ki", "setting": "[5]", "value": "Not Active"}]}, {"compound": "SODIUM NITROPRUSSIDE", "values": [{"measurement": "IC50", "setting": "[1]", "value": "Not Active"}, {"measurement": "Ki", "setting": "[1]", "value": "Not Active"}, {"measurement": "IC50", "setting": "[2]", "value": "Not Active"}, {"measurement": "Ki", "setting": "[2]", "value": "Not Active"}, {"measurement": "IC50", "setting": "[3]", "value": "Not Active"}, {"measurement": "Ki", "setting": "[3]", "value": "Not Active"}, {"measurement": "IC50", "setting": "Thromboxane-A synthase; platelet", "value": "Not Active"}, {"measurement": "Ki", "setting": "Thromboxane-A synthase; platelet", "value": "Not Active"}, {"measurement": "IC50", "setting": "[4]", "value": "Not Active"}, {"measurement": "Ki", "setting": "[4]", "value": "Not Active"}, {"measurement": "IC50", "setting": "[5]", "value": "Not Active"}, {"measurement": "Ki", "setting": "[5]", "value": "Not Active"}]}]}
